Measured values as given in PubChem BioAssay (NCI).
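1) Cells in 96-well plates. 2) Compound, 48 h, 5 concentrations. 3) Linear interpolation between surrounding doses. 4) Unreached endpoint = highest concentration. TGI: total growth inhibition.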

Columns and labels:
Test in all cases: DTP human tumour cell line panel, 48 h
[1] = system: M19-MEL melanoma
[2] = system: SK-MEL-5 melanoma
[3] = system: SW-620 colon
[4] = system: HCC-2998 colon
[5] = system: IGROV1 ovarian
[6] = system: COLO 205 colon
[7] = system: SNB-19 CNS
[8] = system: A549 NSCLC
[9] = system: SF-295 CNS
[10] = system: HT29 colon
[11] = system: CCRF-CEM leukemia
[12] = system: 786-0 renal
[13] = system: SK-MEL-28 melanoma
[14] = system: DMS 114 small cell lung
[15] = system: SNB-78 CNS
[16] = system: CAKI-1 renal
[17] = system: RXF-631 renal
[18] = system: K-562 leukemia
[19] = system: UACC-257 melanoma
[20] = system: MOLT-4 leukemia
[21] = system: NCI-H460 lung
[22] = system: M14 melanoma
[23] = system: OVCAR-4 ovarian
[24] = system: NCI-H522 lung
[25] = system: SR leukemia
[26] = system: UO-31 renal
[27] = system: OVCAR-5 ovarian
[28] = system: SN12C renal
[29] = system: UACC-62 melanoma
[30] = system: SF-539 CNS
[31] = system: HCT-116 colon
[32] = system: KM12 colon
[33] = system: HOP-62 NSCLC
[34] = system: LOX IMVI melanoma
[35] = system: XF 498 CNS
[36] = system: ACHN renal
[37] = system: HOP-92 NSCLC
[38] = system: SNB-75 CNS
[39] = system: OVCAR-3 ovarian
[40] = system: SF-268 CNS
[41] = system: TK-10 renal
[42] = system: HOP-18 NSCLC
[43] = system: HL-60(TB) leukemia
[44] = system: NCI-H23 lung
[45] = system: DLD-1 colon
[46] = system: OVCAR-8 ovarian
[47] = system: RXF 393 renal
[48] = system: MALME-3M melanoma
[49] = system: U251 CNS
[50] = system: LXFL 529 NSCLC
[51] = system: DMS 273 small cell lung
[52] = system: A498 renal
[53] = system: SK-MEL-2 melanoma
[54] = system: HCT-15 colon
[55] = system: KM20L2 colon
[56] = system: EKVX NSCLC
[57] = system: SK-OV-3 ovarian
[58] = system: RPMI-8226 leukemia
[59] = system: NCI-H226 lung

Compound: COc1ccc2c(c1)CCc1c(C(C)=O)c3ccccc3n1C2
- TGI [1]: > 100 µM
- TGI [2]: > 100 µM
- TGI [3]: > 100 µM
- TGI [4]: > 100 µM
- TGI [5]: > 100 µM
- TGI [6]: > 100 µM
- TGI [7]: > 100 µM
- TGI [8]: > 100 µM
- TGI [9]: > 100 µM
- TGI [10]: > 100 µM
- TGI [11]: > 100 µM
- TGI [12]: > 100 µM
- TGI [13]: > 100 µM
- TGI [14]: > 100 µM
- TGI [15]: > 100 µM
- TGI [16]: > 100 µM
- TGI [17]: > 100 µM
- TGI [18]: > 100 µM
- TGI [19]: > 100 µM
- TGI [20]: > 100 µM
- TGI [21]: > 100 µM
- TGI [22]: > 100 µM
- TGI [23]: > 100 µM
- TGI [24]: > 100 µM
- TGI [25]: > 100 µM
- TGI [26]: > 100 µM
- TGI [27]: > 100 µM
- TGI [28]: > 100 µM
- TGI [29]: > 100 µM
- TGI [30]: 62.6 µM
- TGI [31]: > 100 µM
- TGI [32]: > 100 µM
- TGI [33]: 91.3 µM
- TGI [34]: > 100 µM
- TGI [35]: 51.2 µM
- TGI [36]: > 100 µM
- TGI [37]: > 100 µM
- TGI [38]: 85.1 µM
- TGI [39]: > 100 µM
- TGI [40]: > 100 µM
- TGI [41]: > 100 µM
- TGI [42]: > 100 µM
- TGI [43]: > 100 µM
- TGI [44]: > 100 µM
- TGI [45]: > 100 µM
- TGI [46]: > 100 µM
- TGI [47]: 75.4 µM
- TGI [48]: 74.4 µM
- TGI [49]: > 100 µM
- TGI [50]: > 100 µM
- TGI [51]: > 100 µM

Compound: COc1ccc(C2SCc3nc4ccccc4n32)cc1 (stereo not given)
- TGI [1]: > 100 µM
- TGI [52]: 65.8 µM
- TGI [2]: 14.9 µM
- TGI [3]: > 100 µM
- TGI [53]: > 100 µM
- TGI [5]: > 100 µM
- TGI [7]: > 100 µM
- TGI [9]: > 100 µM
- TGI [10]: 7.02 µM
- TGI [11]: > 100 µM
- TGI [54]: > 100 µM
- TGI [13]: > 100 µM
- TGI [14]: 8.07 µM
- TGI [15]: > 100 µM
- TGI [16]: > 100 µM
- TGI [17]: > 100 µM
- TGI [55]: 6.25 µM
- TGI [18]: > 100 µM
- TGI [20]: 45.5 µM
- TGI [21]: > 100 µM
- TGI [22]: > 100 µM
- TGI [24]: 5.42 µM
- TGI [56]: > 100 µM
- TGI [57]: > 100 µM
- TGI [26]: 66.5 µM
- TGI [28]: > 100 µM
- TGI [29]: > 100 µM
- TGI [30]: > 100 µM
- TGI [58]: 13.7 µM
- TGI [34]: > 100 µM
- TGI [35]: 4.13 µM
- TGI [36]: > 100 µM
- TGI [37]: 8.75 µM
- TGI [38]: 4.54 µM
- TGI [39]: > 100 µM
- TGI [40]: > 100 µM
- TGI [41]: > 100 µM
- TGI [42]: > 100 µM
- TGI [43]: 5.43 µM
- TGI [44]: > 100 µM
- TGI [46]: > 100 µM
- TGI [48]: > 100 µM
- TGI [49]: 85.4 µM
- TGI [59]: > 100 µM
- TGI [50]: > 100 µM
- TGI [51]: 53.6 µM

Compound: COc1ccc(C2C(C#N)=C(O)NC(O)=C2C#N)cc1OC
- TGI [1]: > 100 µM
- TGI [52]: > 100 µM
- TGI [2]: > 100 µM
- TGI [3]: > 100 µM
- TGI [53]: > 100 µM
- TGI [4]: > 100 µM
- TGI [5]: > 100 µM
- TGI [6]: > 100 µM
- TGI [7]: > 100 µM
- TGI [8]: > 100 µM
- TGI [9]: > 100 µM
- TGI [10]: > 100 µM
- TGI [54]: > 100 µM
- TGI [13]: > 100 µM
- TGI [15]: > 100 µM
- TGI [16]: > 100 µM
- TGI [17]: > 100 µM
- TGI [55]: > 100 µM
- TGI [20]: > 100 µM
- TGI [22]: > 100 µM
- TGI [24]: > 100 µM
- TGI [25]: > 100 µM
- TGI [56]: > 100 µM
- TGI [57]: > 100 µM
- TGI [26]: > 100 µM
- TGI [27]: > 100 µM
- TGI [28]: > 100 µM
- TGI [30]: > 100 µM
- TGI [31]: > 100 µM
- TGI [32]: > 100 µM
- TGI [33]: > 100 µM
- TGI [58]: > 100 µM
- TGI [35]: > 100 µM
- TGI [37]: > 100 µM
- TGI [38]: > 100 µM
- TGI [39]: > 100 µM
- TGI [40]: > 100 µM
- TGI [42]: > 100 µM
- TGI [46]: > 100 µM
- TGI [48]: > 100 µM
- TGI [49]: > 100 µM
- TGI [50]: > 100 µM
- TGI [51]: > 100 µM
